One assay addresses T1, IDH2 R140Q (Homo sapiens, UniProt P48735, R140Q).
T1 sequence (P48735 40-452 R140Q): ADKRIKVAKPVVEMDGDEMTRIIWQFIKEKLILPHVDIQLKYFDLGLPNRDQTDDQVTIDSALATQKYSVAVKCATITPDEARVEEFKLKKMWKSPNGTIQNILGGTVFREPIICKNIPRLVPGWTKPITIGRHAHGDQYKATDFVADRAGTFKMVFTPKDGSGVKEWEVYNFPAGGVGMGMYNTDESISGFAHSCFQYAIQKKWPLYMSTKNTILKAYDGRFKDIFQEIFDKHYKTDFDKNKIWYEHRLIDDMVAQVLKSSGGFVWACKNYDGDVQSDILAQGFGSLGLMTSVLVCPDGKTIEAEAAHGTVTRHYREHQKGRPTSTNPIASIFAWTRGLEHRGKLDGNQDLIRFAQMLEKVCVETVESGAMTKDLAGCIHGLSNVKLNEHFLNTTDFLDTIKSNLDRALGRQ
Briefly: IDH2 R140Q enzymatic assay (cofactor depletion, similar format). In kind it is biochemical. As to conditions: read-out: Enz R140Q.

In a further assay the target is T2, IDH2 R172K (Homo sapiens, UniProt P48735, R172K).
T2 sequence (P48735 40-452 R172K): T1 sequence (P48735 40-452 R140Q) with Q101R, R133K
Nature of the assay: IDH2 R172K enzymatic assay (NADPH cofactor depletion, diaphorase/resazurin readout). The conditions noted are these: read-out: Enz R172K. In kind it is biochemical. In short, it runs like this:
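Residual NADPH is read out as resorufin fluorescence after quenching with 36 μg/ml diaphorase and 60 μM resazurin in stop mix. The stop follows a 1 h room-temperature reaction started by a substrate mix of NADPH (50 μM) and α-KG (6.3 mM), with compound preincubated with enzyme for 1 h beforehand.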

Assay [1] has as its system U87MG pLVX-IDH2 R140Q-neo cells. Nature of the assay: U87MG pLVX-IDH2 R140Q-neo cell based assay, 2-HG in media by LC-MS at 48 hours. As to conditions: Homo sapiens, U-87 MG. In short, it runs like this: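 2-HG secreted into the medium was measured by LC-MS after 48 h of compound treatment (0.2% DMSO final) of U87MG pLVX-IDH2 R140Q-neo cells in DMEM/10% FBS. The same wells were assayed at 72 h by CellTiter-Glo luminescence for effects on growth.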

Where a chain is given by its changes, count along the chain named. A value given as a limit tells only on which side of the number the result lay.

This note sets out measurements from patent US9512107B2, “Therapeutically active compositions and their methods of use” (Agios Pharmaceuticals, Inc., priority 2012, dated 2016).

On to `CC(C)Nc1nc(Nc2cccc(F)c2)nc(-c2cccc(N)n2)n1` [Compound 492, 6-(6-aminopyridin-2-yl)-N2-(3-fluorophenyl)-N4-isopropyl-1,3,5-triazine-2,4-diamine], for which the IC50 at IDH2 R140Q is 100 to 1000 nM; at IDH2 R172K it was less than 100 nM; in assay [1], less than 100 nM.
With `CC(C)(CO)CNc1nc(Nc2ccnc(C(F)(F)F)c2)nc(-c2cccc(Cl)n2)n1` [Compound 495, 3-[4-(6-Chloro-pyridin-2-yl)-6-(2-trifluoromethyl-pyridin-4-ylamino)-[1,3,5]triazin-2-ylamino]-2,2-dimethyl-propan-1-ol], the IC50 was 100 to 1000 nM at IDH2 R140Q, less than 100 nM on IDH2 R172K and less than 100 nM in assay [1].
With `CC(C)Nc1nc(Nc2ccnc(C(C)(C)O)c2)nc(-c2cccc(C(F)(F)F)n2)n1` [Compound 496, 2-{4-[4-Isopropylamino-6-(6-trifluoromethyl-pyridin-2-yl)-[1,3,5]triazin-2-ylamino]-pyridin-2-yl}-propan-2-ol], the IC50 at IDH2 R140Q is 100 to 1000 nM; on IDH2 R172K it was less than 100 nM; in assay [1], less than 100 nM.
With `CC(C)Nc1nc(Nc2cccc(S(=O)(=O)NCC3CC3)c2)nc(-c2cccc(Cl)n2)n1` [Compound 497, 3-[4-(6-Chloro-pyridin-2-yl)-6-isopropylamino-[1,3,5]triazin-2-ylamino]-N-cyclopropylmethyl-benzenesulfonamide], the IC50 at IDH2 R140Q is 100 to 1000 nM; on IDH2 R172K it was 100 to 1000 nM; in assay [1], less than 100 nM.
As to `CC(C)(C)CNc1nc(Nc2cncc(C#N)c2)nc(-c2cccc(Cl)n2)n1` [Compound 498, 5-[4-(6-Chloro-pyridin-2-yl)-6-(2,2-dimethyl-propylamino)-[1,3,5]triazin-2-ylamino]-nicotinonitrile], the results for the IC50 (at IDH2 R140Q; on IDH2 R172K; in assay [1]) were 100 to 1000 nM, 1000 to 10000 nM and 100 to 1000 nM, respectively.
With `COCC(C)Nc1nc(Nc2ccnc(C(F)(F)F)c2)nc(-c2cccc(Cl)n2)n1` (stereo not drawn) [Compound 499, 6-(6-Chloro-pyridin-2-yl)-N-(2-methoxy-1-methyl-ethyl)-N′-(2-trifluoromethyl-pyridin-4-yl)-[1,3,5]triazine-2,4-diamine], the IC50 at IDH2 R140Q was 100 to 1000 nM; at IDH2 R172K it was less than 100 nM; in assay [1], less than 100 nM.
Consider `CC(C)(O)CNc1nc(Nc2ccnc(F)c2)nc(-c2cccc(C(F)(F)F)n2)n1` [Compound 500, 1-[4-(2-Fluoro-pyridin-4-ylamino)-6-(6-trifluoromethyl-pyridin-2-yl)-[1,3,5]triazin-2-ylamino]-2-methyl-propan-2-ol], for which the IC50 was 100 to 1000 nM at IDH2 R140Q, less than 100 nM on IDH2 R172K and less than 100 nM in assay [1].
For the molecule `Cc1cc(Nc2nc(NC(C)C)nc(-c3cccc(C(F)(F)F)n3)n2)cnn1` [Compound 501, N-Isopropyl-N′-(6-methyl-pyridazin-4-yl)-6-(6-trifluoromethyl-pyridin-2-yl)-[1,3,5]triazine-2,4-diamine], the IC50 lay within 100 to 1000 nM at IDH2 R140Q, 1000 to 10000 nM at IDH2 R172K and 100 to 1000 nM in assay [1].
Turning to `CC(C)Nc1nc(Nc2cncc(F)c2)nc(-c2cccc(C(F)(F)F)n2)n1` [Compound 503, N-(5-Fluoro-pyridin-3-yl)-N′-isopropyl-6-(6-trifluoromethyl-pyridin-2-yl)-[1,3,5]triazine-2,4-diamine], the results for the IC50 (on IDH2 R140Q; at IDH2 R172K; in assay [1]) were 1000 to 10000 nM, less than 100 nM and less than 100 nM, respectively.
As for `FC(F)(F)c1cc(Nc2nc(NC3C4COCC43)nc(-c3cccc(C(F)(F)F)n3)n2)ccn1` (stereo not drawn) [Compound 504, N-(3-Oxa-bicyclo[3.1.0]hex-6-yl)-N′-(2-trifluoromethyl-pyridin-4-yl)-6-(6-trifluoromethyl-pyridin-2-yl)-[1,3,5]triazine-2,4-diamine], the IC50 at IDH2 R140Q is 100 to 1000 nM; on IDH2 R172K, less than 100 nM; in assay [1], less than 100 nM.
For `N#Cc1cc(Nc2nc(NC3C4COCC43)nc(-c3cccc(C(F)(F)F)n3)n2)ccn1` (stereo not drawn) [Compound 505, 4-[4-(3-Oxa-bicyclo[3.1.0]hex-6-ylamino)-6-(6-trifluoromethyl-pyridin-2-yl)-[1,3,5]triazin-2-ylamino]-pyridine-2-carbonitrile], the values for the IC50 (on IDH2 R140Q; at IDH2 R172K; in assay [1]) were 100 to 1000 nM, 100 to 1000 nM and less than 100 nM, respectively.
For the molecule `Fc1cncc(Nc2nc(NC3C4COCC43)nc(-c3cccc(Cl)n3)n2)c1` (stereo not drawn) [Compound 511, 6-(6-Chloro-pyridin-2-yl)-N-(5-fluoro-pyridin-3-yl)-N′-(3-oxa-bicyclo[3.1.0]hex-6-yl)-[1,3,5]triazine-2,4-diamine], the figures for the IC50 (at IDH2 R140Q; at IDH2 R172K; in assay [1]) were 100 to 1000 nM, 100 to 1000 nM and less than 100 nM, respectively.
Turning to `Fc1ccc(Nc2nc(NC3C4COCC43)nc(-c3cccc(Cl)n3)n2)cn1` (stereo not drawn) [Compound 512, 6-(6-Chloro-pyridin-2-yl)-N-(6-fluoro-pyridin-3-yl)-N′-(3-oxa-bicyclo[3.1.0]hex-6-yl)-[1,3,5]triazine-2,4-diamine], the IC50 at IDH2 R140Q was 100 to 1000 nM; on IDH2 R172K, 100 to 1000 nM; in assay [1] it was less than 100 nM.
As to `CC(C)Nc1nc(Nc2ccnc(C(C)(F)F)c2)nc(-c2cccc(Cl)n2)n1` [Compound 513, 6-(6-Chloro-pyridin-2-yl)-N-[2-(1,1-difluoro-ethyl)-pyridin-4-yl]-N′-isopropyl-[1,3,5]triazine-2,4-diamine], the IC50 on IDH2 R140Q was 1000 to 10000 nM; on IDH2 R172K, 100 to 1000 nM; in assay [1], less than 100 nM.
As for `CC(C)Nc1nc(Nc2ccnc(C(C)(C)O)c2)nc(-c2cccc(Cl)n2)n1` [Compound 514, 2-{4-[4-(6-Chloro-pyridin-2-yl)-6-isopropylamino-[1,3,5]triazin-2-ylamino]-pyridin-2-yl}-propan-2-ol], the IC50 on IDH2 R140Q is 100 to 1000 nM; on IDH2 R172K, less than 100 nM; in assay [1], less than 100 nM.
Regarding `CC1CC1Nc1nc(Nc2ccnc(C(F)(F)F)c2)nc(-c2ccccn2)n1` (stereo not drawn) [Compound 516, N-(2-Methyl-cyclopropyl)-6-pyridin-2-yl-N′-(2-trifluoromethyl-pyridin-4-yl)-[1,3,5]triazine-2,4-diamine], the IC50 on IDH2 R140Q is 100 to 1000 nM; on IDH2 R172K, less than 100 nM; in assay [1], less than 100 nM.
Consider `CC(C)(C)CNc1nc(Nc2ccnc(C(F)(F)F)c2)nc(-c2ccccn2)n1` [Compound 517, N-(2,2-Dimethyl-propyl)-6-pyridin-2-yl-N′-(2-trifluoromethyl-pyridin-4-yl)-[1,3,5]triazine-2,4-diamine], for which the IC50 at IDH2 R140Q was 100 to 1000 nM; on IDH2 R172K it was less than 100 nM; in assay [1], less than 100 nM.
As to `CC(C)Nc1nc(Nc2cccc(S(=O)(=O)NCC(F)(F)F)c2)nc(-c2cccc(Cl)n2)n1` [Compound 518, 3-[4-(6-Chloro-pyridin-2-yl)-6-isopropylamino-[1,3,5]triazin-2-ylamino]-N-(2,2,2-trifluoro-ethyl)-benzenesulfonamide], the IC50 was 100 to 1000 nM on IDH2 R140Q, less than 100 nM on IDH2 R172K and less than 100 nM in assay [1].
On to `CC(C)Nc1nc(Nc2cccc(S(=O)(=O)NCC(F)(F)F)c2)nc(-c2cccc(C(F)(F)F)n2)n1` [Compound 519], for which the IC50 was 100 to 1000 nM on IDH2 R140Q, 100 to 1000 nM at IDH2 R172K and less than 100 nM in assay [1].
As for `CC(C)(C)CNc1nc(Nc2cncnc2)nc(-c2cccc(C(F)(F)F)n2)n1` [Compound 521, N-(2,2-Dimethyl-propyl)-N′-pyrimidin-5-yl-6-(6-trifluoromethyl-pyridin-2-yl)-[1,3,5]triazine-2,4-diamine], the IC50 on IDH2 R140Q was 100 to 1000 nM; at IDH2 R172K it was less than 100 nM; in assay [1], less than 100 nM.
For the molecule `CC(C)Nc1nc(Nc2ccnc(C(F)(F)F)c2)nc(-c2nccc(C(F)(F)F)n2)n1` [Compound 522, N2-isopropyl-N4-(2-(trifluoromethyl)pyridin-4-yl)-6-(4-(trifluoromethyl)pyrimidin-2-yl)-1,3,5-triazine-2,4-diamine], the IC50 was 100 to 1000 nM at IDH2 R140Q, 100 to 1000 nM at IDH2 R172K and less than 100 nM in assay [1].
Turning to `CC(C)(C)CNc1nc(Nc2ccnc(C(F)(F)F)c2)nc(-c2nccc(C(F)(F)F)n2)n1` [Compound 523, N2-neopentyl-N4-(2-(trifluoromethyl)pyridin-4-yl)-6-(4-(trifluoromethyl)pyrimidin-2-yl)-1,3,5-triazine-2,4-diamine], the IC50 at IDH2 R140Q is 100 to 1000 nM; on IDH2 R172K, less than 100 nM; in assay [1] it was less than 100 nM.
